Reference: ChEMBL document CHEMBL1201862, “PubChem BioAssay data set” (2004)
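Interpolation was linear, between the two tested concentrations surrounding the appropriate level; five concentrations were tested over 48 hours in 96-well plates. Abbreviation: GI50, concentration required for 50% inhibition of growth.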 Activity calls are given as the source filed them. Cut-off read from the data, not from the text of the source: active = GI50 up to about 1.1 µM and inactive = higher.

Columns and labels:
Assay in all cases: NCI tumour cell line growth inhibition, 48 h
PC-3 = tested on: PC-3
SF-539 = tested on: SF-539
OVCAR-5 = tested on: OVCAR-5
MDA-N = tested on: MDA-N
SK-OV-3 = tested on: SK-OV-3
Hs-578T = tested on: Hs-578T
NCI-H226 = tested on: NCI-H226
SNB-19 = tested on: SNB-19
U-251 = tested on: U-251
NCI-H460 = tested on: NCI-H460
Malme-3M = tested on: Malme-3M
A498 = tested on: A498
HOP-92 = tested on: HOP-92
K562 = tested on: K562
OVCAR-8 = tested on: OVCAR-8
TK-10 = tested on: TK-10
RPMI-8226 = tested on: RPMI-8226
SK-MEL-28 = tested on: SK-MEL-28
M14 = tested on: M14
RXF 393 = tested on: RXF 393

Measured: GI50

CCCC(=O)OCC(COC(=O)CCC)OC(=O)CCC [TRIBUTYRIN]
inactive: PC-3 99.3 µM | SF-539 62.8 µM | OVCAR-5 57.3 µM | MDA-N 65.2 µM | SK-OV-3 61.2 µM | Hs-578T 57.9 µM | NCI-H226 > 100 µM | SNB-19 > 100 µM | U-251 53 µM | NCI-H460 99.8 µM | Malme-3M 41.2 µM | A498 > 100 µM | HOP-92 > 100 µM | K562 64.7 µM | OVCAR-8 62.4 µM | TK-10 27.3 µM | RPMI-8226 17.1 µM | SK-MEL-28 66.1 µM | M14 58.5 µM | RXF 393 > 100 µM
